{
  "source": "paper PMC2873402",
  "about": "“Discovery of High-Affinity Protein Binding Ligands – Backwards” (PLoS ONE, 2010)",
  "key": {"AKT1 [1]": {"biological_target": "T1, AKT1 (Homo sapiens, UniProt P31749)", "T1 sequence (P31749 whole entry)": "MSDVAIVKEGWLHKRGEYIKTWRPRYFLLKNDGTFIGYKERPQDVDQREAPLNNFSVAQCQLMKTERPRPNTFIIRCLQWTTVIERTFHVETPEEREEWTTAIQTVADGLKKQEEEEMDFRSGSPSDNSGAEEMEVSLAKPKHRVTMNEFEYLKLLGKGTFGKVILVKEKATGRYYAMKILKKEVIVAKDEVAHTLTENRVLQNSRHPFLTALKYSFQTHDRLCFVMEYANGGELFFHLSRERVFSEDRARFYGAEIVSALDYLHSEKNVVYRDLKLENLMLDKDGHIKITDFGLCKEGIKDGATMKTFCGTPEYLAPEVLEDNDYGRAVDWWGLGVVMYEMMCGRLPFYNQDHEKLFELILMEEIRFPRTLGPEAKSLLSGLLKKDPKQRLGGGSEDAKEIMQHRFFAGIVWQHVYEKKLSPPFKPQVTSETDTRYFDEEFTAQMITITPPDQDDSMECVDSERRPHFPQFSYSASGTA", "experiment": "IP of AKT1 from solution, Western Blot", "format": "binding", "design": "purchased Life Technologies", "settings": "synbody with C-terminal Lys-Biotin on streptavidin magnetic beads, 89 nM to 0.7 nM AKT1, overnight, 4°C", "method": "The synbody was tested for its ability to bind native protein in solution. A variant of the synbody was prepared in which the C-terminal Cys was replaced with a Lys-Biotin. The synbody was used in an immunoprecipitation (IP) experiment in which it was bound to streptavidin magnetic beads and incubated overnight with 89 nM to 0.7 nM solutions of AKT1. The beads were washed extensively and the bound protein was eluted. Samples were run on a SDS-PAGE gel and detected by Western Blot with an anti-AKT1 monoclonal antibody (Figure 3B).\n(§1) For all IP experiments, either a 1 µM or 250 nM solution of biotin-conjugated synbody was captured on 20 µL of streptavidin coated paramagnetic M-280 Dynabeads (Life Technologies) according to the manufacturers protocol. Synbody coated beads were washed five times with 1 mL of 100 mM phosphate buffered saline containing 0.05% Tween-20 (PBST) and incubated overnight at 4°C with shaking in the desired amount of target protein in A549 cell lysate. For Kd determination experiments, serial dilutions of AKT1 or ABL1 were prepared in binding buffer. After binding, beads were washed five times with 1 mL of PBST and heated at 70°C in 20 µL of 1× LDS loading buffer (Invitrogen) for 10 minutes. The samples were analyzed by SDS-PAGE gel with Western Blot detection using the appropriate antibody and imaged on a GE Healthcare Typhoon Trio."}, "AKT2": {"system": "AKT2", "experiment": "Protein array (ProtoArray), binding to AKT2", "design": "species or system human", "method": "Synbodies were screened on an Invitrogen ProtoArray™ (Life Technologies, Carlsbad, CA, USA) detected with Alexa-555 labeled streptavidin (Life Technologies), and scanned using a Perkin Elmer ProScan Array HTP. The spots were analyzed using GenePix Pro (Molecular Devices, Sunnyvale, CA, USA) and data were processed using Genespring GX (Agilent Technologies, Santa Clara, CA, USA). Synbodies were labeled with biotin using either Maleimide-PEG2-Biotin (Thermo Pierce, Rockford, IL, USA) to label the C-terminal cysteine or biotin was incorporated during synbody synthesis by replacing the C-terminal cysteine with Lys-biotin (Novabiochem, San Diego, CA, USA). Synbodies were screened on the array using the recommended protocol with the following modifications: the arrays were blocked with 5 mL blocking buffer (50mM HEPES pH 7.5, 200 mM NaCl, 0.08% Triton X-100, 25% Glycerol, 20mM reduced Glutathione, 1.0mM DTT, 1% BSA) for 90 min. A 200 nM synbody solution was incubated in probing buffer (1× PBS, 1% BSA, 0.1% Tween) for 90 minutes. Slides were dried by centrifugation at 200g for 1 minute and scanned at 100% laser power and 70% photomultiplier voltage. The gal file was obtained for each array by submitting the barcode of the array to www.invitrogen.com/protoarray.\nHeat maps were constructed using median-normalized data from each ProtoArray. […]"}, "[2]": {"system": "8,303 recombinant human proteins", "experiment": "Protein array (ProtoArray) screen of synbodies", "format": "binding", "settings": "200 nM biotin synbody, Alexa-555 streptavidin detection, background-subtracted fluorescence", "description": "(§2) To test this approach, a candidate synbody was constructed using two peptides, […] and […], referred to as peptides 1 and 2, respectively. The sequences of the first 17 aa of these peptides were generated using a random number generator and three constant positions on the C-terminus that served as a spacer between the linker scaffold and the active portion of each peptide. A divergent synthetic method was used in which peptide 1 was synthesized from C to N terminus from the α-amine of lysine and peptide 2 was synthesized from the ε-amine of lysine (Figure 2A, Materials and Methods S1, Figure S1). The synbody was tagged on the C-terminus with biotin and screened against a Life Technologies ProtoArray™. ProtoArrays are nitrocellulose coated slides onto which 8,303 recombinant human proteins have been spotted. After a 2-hour incubation, the array was washed and bound synbody was detected using fluorescently labeled streptavidin. […]\n(§3) Synbodies were screened on an Invitrogen ProtoArray™ (Life Technologies, Carlsbad, CA, USA) detected with Alexa-555 labeled streptavidin (Life Technologies), and scanned using a Perkin Elmer ProScan Array HTP. The spots were analyzed using GenePix Pro (Molecular Devices, Sunnyvale, CA, USA) and data were processed using Genespring GX (Agilent Technologies, Santa Clara, CA, USA). […]"}, "AKT1 [3]": {"biological_target": "T1, AKT1", "experiment": "Protein array (ProtoArray), binding to AKT1", "design": "purchased Life Technologies", "settings": "200 nM synbody, fluorescently labeled streptavidin", "description": "as §2, §3"}, "AKT3": {"system": "AKT3", "experiment": "IP of AKT isoforms spiked into A549 lysate: AKT3", "format": "binding", "settings": "250 ng of each isoform in 500 µg A549 lysate, Western Blot", "method": "This apparent specificity was investigated further by performing an IP using 250 ng of each isoform of AKT spiked into 500 µg of A-549 cell lysate.\nas §1"}, "AKT1 [4]": {"biological_target": "T1, AKT1", "experiment": "IP of AKT1 spiked into A549 cell lysate, Western Blot", "format": "binding", "design": "purchased Life Technologies", "settings": "200 ng AKT1 (33.2 nM)", "method": "As a preliminary test of specificity, 200 ng of AKT1 (33.2 nM) was spiked into increasing amounts of cell lysate prepared from un-stimulated A549 lung epithelial cells and streptavidin beads coated with 25 pmols of synbody (7.6∶1 synbody-to-AKT1 ratio) were used to pull down AKT1 using the same IP procedure and Western Blot protocol as before.\nas §1"}},
  "note": "Entries after “also recorded” stand apart in the source; their conditions may differ. Bridge positions count the residues as written; N and C are the ends. Ends that are not written are not given here. I, II: the chains in the order shown. * marks the point of attachment. StBu = CC(C)(C)S*",
  "data": [
    {"substance": "I: AHKVVPQRQIRHAYNRYGSGKC(StBu)-NH2 / II: FRGWAHIFFGPHVIYRGGSG (amide I:21-II:C) [synbody]", "values": [
      {"measurement": "IP of AKT1 from solution", "setting": "AKT1 [1]", "result": "bound AKT1 from solution"},
      {"measurement": "binding to AKT2 on protein array", "setting": "AKT2", "result": "little binding"},
      {"measurement": "proteins bound on protein array", "setting": "[2]", "result": "bound few proteins on the array; also recorded: bound several different proteins including PCCA, CASZ1, GRP58, NOB1, and AKT1"},
      {"measurement": "binding to AKT1 on protein array (top 10 proteins)", "setting": "AKT1 [3]", "result": "twice in the top 10 proteins bound by the synbody"},
      {"measurement": "IP of AKT3 (isoform selectivity)", "setting": "AKT3", "result": "relatively little"},
      {"measurement": "excess cell extract in the presence of which AKT1 is precipitated", "setting": "AKT1 [4]; 25 pmols synbody (7.6:1), A549 lysate", "result": "2,500 fold excess"},
      {"measurement": "precipitation of AKT1 from A549 lysate", "setting": "AKT1 [4]; 25 pmols synbody (7.6:1 synbody-to-AKT1), increasing A549 lysate", "result": "successfully pulled AKT1 out of the cell lysate in the presence of an increasing concentration of A549 lysate with little reduction in AKT1 signal intensity"}
    ]}
  ]
}
